One assay concerns the target RORγt (Homo sapiens (Human), UniProt P51449). Description: Gal4 ligand binding assay (RORγt Gal fusion assay). The format is cell-based. To be noted: RORγt inverse agonists in RORγt Gal fusion assay. As for the experimental part:
Human RORγ ligand binding assay was performed in 96-well format. The N-terminal DNA binding domains (DBD) of the native RORγ and RORγt receptors have been substituted with that of the yeast GAL4-DBD and RORγ is expressed constitutively in the cell line. Both agonist and inverse agonist activity can be detected. 10 mM compound stocks were diluted serially 1:3 with DMSO and further diluted with provided media to generate 10 titration points from 60 μM to 3 nM. These treatment conditions were added to the plates as 2× media in 100 μL volume. Each plate includes a positive control with 10 titration points as well as 6 negative control wells with vehicle only. Reporter cells were rapidly thawed and added to the plates in 100 μL volume. The plates were incubated for 24 hrs in a 37° C. humidified 5% CO2 incubator. Media was removed before the addition of room temperature Detection Substrate. After 5 minute incubation, the luminescence was quantified on a luminescence plate reader.

For another assay, the system named is IMQ-induced psoriasis. The settings on record: topical pre-treatment daily for 5 days, 4 hours before IMQ; Compound A at 0.3, 1, 3%.

The structures appear in SMILES notation. Where a name gives a salt, the structure may show the parent alone.

RORγt, sequence (P51449 269-508): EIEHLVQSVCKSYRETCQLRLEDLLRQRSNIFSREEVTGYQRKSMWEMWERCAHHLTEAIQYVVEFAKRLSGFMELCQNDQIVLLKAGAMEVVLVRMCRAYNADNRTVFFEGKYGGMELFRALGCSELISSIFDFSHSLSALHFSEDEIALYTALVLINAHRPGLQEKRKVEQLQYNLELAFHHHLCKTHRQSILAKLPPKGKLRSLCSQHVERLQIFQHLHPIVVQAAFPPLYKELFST
Protocol for IMQ-induced psoriasis: Compounds of Formula (I), (Ia), or (Ib) were tested in the imiquimod (IMQ) induced psoriasis model in mice to determine their in vivo efficacy as topical agents. Female Balb/c mice of age 8-10 weeks were allowed to acclimatize for at least seven days prior to experiment initiation. During this period, the mice were observed daily for clinical signs. Animals were randomly assigned to studies group on Day zero (DO) before anaesthetization and back hair was completely removed by using a depilatory cream. One group of animals served as a naïve control (untreated). […] The severity of psoriasis was monitored and graded daily using a modified human scoring system, the Psoriasis Area and Severity Index (PASI), which consists of measures for ear and skin erythema, scaling and thickness. At the end of the study period, 24 hours after the final dosing, all animals were humanely sacrificed, and blind histopathological scoring was performed by pathologist on H&E stained tissue sections of the ear and back.

What is called IC50 is the concentration at which inhibition is half-maximal. A higher IC50 goes with weaker potency in that assay. At RORγt, `O=C(O)CC1CN(Cc2ccncc2)CCN1Cc1ccc(-c2ccc(C(O)(C(F)(F)F)C(F)(F)F)cc2)cc1` (centres unmarked) [Compound 13, 2-(1-((4′-(1,1,1,3,3,3-hexafluoro-2-hydroxypropan-2-yl)-[1,1′-biphenyl]-4-yl)methyl)-4-(pyridin-4-ylmethyl)piperazin-2-yl)acetic acid] returned an IC50 of 1 to 10 µM.

For the compound `NCCOC(=O)CC1CN(Cc2ccc(-c3ccc(C(O)(C(F)(F)F)C(F)(F)F)cc3)cc2)CCN1Cc1ccncc1` (centres unmarked) [Compound 33, 2-aminoethyl 2-(4-((4′-(1,1,1,3,3,3-hexafluoro-2-hydroxypropan-2-yl)-[1,1′-biphenyl]-4-yl)methyl)-1-(pyridin-4-ylmethyl)piperazin-2-yl)acetate hydrochloride], on RORγt, the IC50 is 1 to 10 µM.

Turning to `Cc1cc(CN2CCN(Cc3ccncc3)[C@@H](CC(=O)O)C2)ccc1-c1ccc(C(O)(C(F)(F)F)C(F)(F)F)cc1` [Compound 50, (S)-2-(4-((4′-(1,1,1,3,3,3-hexafluoro-2-hydroxypropan-2-yl)-2-methyl-[1,1′-biphenyl]-4-yl)methyl)-1-(pyridin-4-ylmethyl)piperazin-2-yl)acetic acid], on RORγt, the IC50 was 1 to 10 µM.

`CC(C)NC(=O)C1CN(Cc2ccc(-c3ccc(C(O)(C(F)(F)F)C(F)(F)F)cc3)cc2)CCN1Cc1ccncc1` (centres unmarked) [Compound 28, 4-((4′-(1,1,1,3,3,3-hexafluoro-2-hydroxypropan-2-yl)-[1,1′-biphenyl]-4-yl)methyl)-N-isopropyl-1-(pyridin-4-ylmethyl)piperazine-2-car oxamide] came in with an IC50 at RORγt of 1 to 10 µM.

Turning to `C[C@H]1C[C@H]2[C@@H]3CCC4=CC(=O)C=C[C@]4(C)[C@@]3(F)[C@@H](O)C[C@]2(C)[C@@]1(O)C(=O)CCl` [clobetasol], in the assay on IMQ-induced psoriasis, the “ear and back skin thickness” value is recorded as “significantly decreased”; the histopathology scoring result was “significantly decreased”; the psoriasis score result was “significantly decreased”.

In the case of `O=C(O)C1CN(Cc2ccncc2)CCN1Cc1ccc(-c2ccc(C(O)(C(F)(F)F)C(F)(F)F)cc2)cc1` (centres unmarked) [Compound 12, 1-((4′-(1,1,1,3,3,3-hexafluoro-2-hydroxypropan-2-yl)-[1,1′-biphenyl]-4-yl)methyl)-4-(pyridin-4-ylmethyl)piperazine-2-carboxylic acid], the IC50 at RORγt lay within 1 to 10 µM.

Source of the values: patent US10905687B2, “Substituted piperazines as ROR-gamma modulators” (ESCALIER BIOSCIENCES B.V., priority 2016, dated 2021).
